Literature values in patent US6596297B2, “Biodegradable microbicidal vaginal barrier device” (New York Blood Center, Inc., priority 2002, dated 2003).

Test system: HIV-1

Nonoxynol-9 [N-9]
risk of sexual transmission of HIV-1: increase the risk of sexual transmission of HIV-1
